US3956314A, “Derivatives of 2-pyrrolidinone” (U.C.B., Societe Anonyme, priority 1970, dated 1976)

Tests used:
[1] = toxicity determined in rat by intraperitoneal administration (LD50); details: in vivo, ip
From the text: Moreover, the compounds of the invention have low toxicity.

Wistar rats = assay: anxiolytic action: shuttle box conditioning test, painful electric shocks, second sequence; assay type: in vivo
Method: Wistar rats (weighing 100 g. ± 20 g.) are first permitted to become accustomed, during 10 minutes, to conditioning cages of the shuttle box type, after which they are subjected to a first sequence of 20 painful electric shocks of 3 seconds on their paws repeated every 30 seconds. During this first sequence, the rats ran away before the end of the shock about 15 times out of 20 shocks.
On the other hand, if these same animals are subjected to a sequence of shocks 4 hours later, paradoxically, instead of improving their performance (as in the course of a normal training) a reduction in the number of evasions is found: the animals have become set and are less successful in running away before the end of the shocks. This behavior is attributed to an anxiety state induced by the experimental situation.
Intraperitoneal administration of an anxiolytic substance to the rats, half an hour before the second sequence is carried out, improves their performance (increase in the number of evasions before the end of the shock).
A group of rats, to which a substance to be tested is administered, is compared with a group of control rats, which has been injected with physiological serum under the same conditions. […]

O=C1NC[C@H](c2ccc(Cl)cc2)[C@@H]1c1ccccc1 (relative stereo) [E, 4-p-chlorophenyl-3-phenyl-2-pyrrolidinone (cis isomer)]
LD50 [1]: 320 mg/kg

CC1C(=O)NCC1c1ccc(Cl)cc1 [Compound D, 4-p-chlorophenyl-3-methyl-2-pyrrolidinone (trans isomer)]
LD50 [1]: 306 mg/kg

CNC1=Nc2ccc(Cl)cc2C(c2ccccc2)=[N+]([O-])C1 [S, 7-chloro-2-methylamino-5-phenyl-3H-1,4-benzodiazepine-4-oxide]
LD50 ([1]; reference drug): 240 mg/kg

O=C1CC(c2ccc(Cl)cc2)CN1 (centres unmarked) [T, 4-(para-chlorophenyl)-pyrrolidone-(2)]
performance (in words) (Wistar rats; dose of 0.32 mmole/kg): a decrease in the performance
anxiolytic action (in words) (Wistar rats; rat shuttle box test): practically no anxiolytic action
